According to US20030114467A1, “Novel pyrazolo- and pyrrolo-pyrimidines and uses thereof” (priority 2001, published 2003):

Assay: Hydroxyapatite assay (hydroxyapatite adsorption chromatography, bone-targeting potential)
Type: physicochemical
Conditions: corrected retention K=(retention time-void time)/void; TSK-Gel HA 1000 HPLC column; linear gradient 10 mM to 500 mM sodium phosphate, 0.15 N NaCl, pH 6.8
Protocol: Hydroxyapatite is the principal mineral component of bone. Hydroxyapatite adsorption chromatography is used as an assay to evaluate the bone-targeting potential of both individual bone-targeting moieties (“monomers”) and of pharmaceuticals incorporating bone-targeting groups.
Method: The rentention time of a test compound is measured using a linear gradient from 10 mM sodium phosphate, 0.15 N NaCl, pH=6.8 to 500 mM sodium phosphate, 0.15 N NaCl, […] on a TSK-Gel HA 1000 high pressure liquid chromatography column (7.5 mm×75 mm). The rentention time of the compound is expressed in terms of K=(retention time-void time)/void. This K value is corrected using two reference compounds to correct from inter-column and inter-system variation to obtain a K′ value.
Reference Compounds: K′ values were determined for known bone targeted compounds, the bisphosphonate, alendronate and tetracycline.

## NCCCC(O)(P(=O)(O)O)P(=O)(O)O [Alendronate, alendronate]
  K′ value: 3.7
